Measured values taken from ChEMBL document CHEMBL1201862, “PubChem BioAssay data set” (2004).
Active and inactive are the calls of the source. Cut-off read from the data, not from the text of the source, for most assays here: actives have a measured EC50 and inactives only a lower limit.

Assays:
[1] = target: Dual specificity protein kinase CLK1 (Homo sapiens, UniProt P49759); assay: CLK1 kinase inhibitors, off-target check, dose response, selectivity assay for Dyrk1A inhibitor project, biochemical, cherry-picked samples (AID 588811)
Escherichia coli = assay: microbe, parasite or virus in culture
[2] = NIH-3T3 fibroblast cytotoxicity, dose response, cytotoxicity control, cell-based, fluorescence, Alamar Blue, secondary assay (AID 2327); assay type: functional;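 note: NIH-3T3 mouse fibroblasts cultured with fluconazole at 8 µg/mL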
cells [3] = assay type: functional, cell-based
[4] = C. albicans growth with fluconazole, confirmation, fluorescence, retest (AID 2467); assay type: functional, cell-based
cells [5] = assay type: functional, cell-based; remark: listed apart in the source
[6] = target: T1, Serine/threonine-protein phosphatase (Candida dubliniensis (strain CD36 / CBS 7987 / NCPF 3949 / NRRLY-17841) (Yeast), UniProt B9W6M3); assay: calcineurin pathway inhibitors in yeast reporter, dose response, S. cerevisiae, CDRE-lacZ, luminescence, secondary (AID 2388); assay type: functional, cell-based;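 note: yeast reporter cells carrying a calcineurin-responsive lacZ construct stimulated with calcium chloride; luminescent beta-galactosidase reporter signal in whole cells rather than isolated phosphatase activity; potency for inhibition where a drop in reporter signal means calcineurin blockade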
T1 sequence (B9W6M3 whole entry): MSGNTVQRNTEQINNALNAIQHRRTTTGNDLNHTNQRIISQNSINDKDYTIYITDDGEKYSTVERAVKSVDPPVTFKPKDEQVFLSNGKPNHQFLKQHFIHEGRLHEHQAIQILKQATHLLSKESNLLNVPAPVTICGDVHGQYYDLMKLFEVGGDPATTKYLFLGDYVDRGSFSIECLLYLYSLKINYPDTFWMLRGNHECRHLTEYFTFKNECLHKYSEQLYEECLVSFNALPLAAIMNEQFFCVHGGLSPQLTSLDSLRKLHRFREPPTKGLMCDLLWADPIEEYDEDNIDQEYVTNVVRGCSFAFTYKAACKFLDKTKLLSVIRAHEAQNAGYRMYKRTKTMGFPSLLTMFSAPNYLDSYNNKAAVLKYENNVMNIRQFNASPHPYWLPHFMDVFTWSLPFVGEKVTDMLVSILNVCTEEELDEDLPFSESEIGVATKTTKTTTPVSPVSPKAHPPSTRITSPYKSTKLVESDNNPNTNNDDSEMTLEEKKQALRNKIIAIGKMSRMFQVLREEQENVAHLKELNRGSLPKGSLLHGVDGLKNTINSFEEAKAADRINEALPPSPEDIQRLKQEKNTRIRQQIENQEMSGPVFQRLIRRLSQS

[7] = target: T2, Microphthalmia-associated transcription factor (Homo sapiens, UniProt O75030); assay: TRPM1 promoter luciferase signal decrease, dose response, MITF inhibitor project, cell-based, SK-MEL-5, cherry-picked, set 3 (AID 493073); assay type: functional
T2 sequence (O75030 whole entry): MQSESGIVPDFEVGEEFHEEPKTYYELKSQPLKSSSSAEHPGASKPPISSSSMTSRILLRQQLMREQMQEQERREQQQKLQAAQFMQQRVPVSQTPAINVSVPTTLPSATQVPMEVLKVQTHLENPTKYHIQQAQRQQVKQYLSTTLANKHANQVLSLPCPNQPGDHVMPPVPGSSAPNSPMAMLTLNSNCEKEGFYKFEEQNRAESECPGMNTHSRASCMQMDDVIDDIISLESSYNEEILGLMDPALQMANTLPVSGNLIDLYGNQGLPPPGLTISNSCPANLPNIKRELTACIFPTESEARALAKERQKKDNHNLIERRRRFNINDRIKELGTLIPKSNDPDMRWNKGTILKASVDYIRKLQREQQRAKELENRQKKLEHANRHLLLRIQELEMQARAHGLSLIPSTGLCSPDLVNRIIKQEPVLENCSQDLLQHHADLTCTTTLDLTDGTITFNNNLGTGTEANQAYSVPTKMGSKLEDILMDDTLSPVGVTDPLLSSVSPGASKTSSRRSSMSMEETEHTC

A-375 = assay: MITF: Counter assay: A375 proliferation Measured in Cell-Based System Using Plate Reader - 2084-03_Inhibitor_Dose_DryPowder_Activity. [Related pubchem assays (depositor defined):AID488944]; assay type: functional; conditions: Homo sapiens
INS1 = assay: beta cell apoptosis inhibitors, cytokine rescue, dose response, luminescence, retest (AID 449756); assay type: functional, cell-based; conditions: Rattus norvegicus;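 note: cell death triggered by IL-1 beta plus TNF-alpha plus IFN-gamma mixture; protective hits raise ATP signal compared with cytokine alone wells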
[8] = target: ATP-dependent molecular chaperone HSP82 (Candida albicans (strain WO-1) (Yeast), UniProt C4YTQ8); assay: loss of DOC-induced GRE-beta-galactosidase reporter signal, dose response, Hsp90 inhibitor project, S. cerevisiae, luminescence (AID 2400); assay type: functional, cell-based;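 note: beta-galactosidase luminescence from glucocorticoid response element reporter as proxy for Hsp90 function; inhibitor potency where signal loss means Hsp90 inhibition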
Sequence of ATP-dependent molecular chaperone HSP82 (C4YTQ8 whole entry): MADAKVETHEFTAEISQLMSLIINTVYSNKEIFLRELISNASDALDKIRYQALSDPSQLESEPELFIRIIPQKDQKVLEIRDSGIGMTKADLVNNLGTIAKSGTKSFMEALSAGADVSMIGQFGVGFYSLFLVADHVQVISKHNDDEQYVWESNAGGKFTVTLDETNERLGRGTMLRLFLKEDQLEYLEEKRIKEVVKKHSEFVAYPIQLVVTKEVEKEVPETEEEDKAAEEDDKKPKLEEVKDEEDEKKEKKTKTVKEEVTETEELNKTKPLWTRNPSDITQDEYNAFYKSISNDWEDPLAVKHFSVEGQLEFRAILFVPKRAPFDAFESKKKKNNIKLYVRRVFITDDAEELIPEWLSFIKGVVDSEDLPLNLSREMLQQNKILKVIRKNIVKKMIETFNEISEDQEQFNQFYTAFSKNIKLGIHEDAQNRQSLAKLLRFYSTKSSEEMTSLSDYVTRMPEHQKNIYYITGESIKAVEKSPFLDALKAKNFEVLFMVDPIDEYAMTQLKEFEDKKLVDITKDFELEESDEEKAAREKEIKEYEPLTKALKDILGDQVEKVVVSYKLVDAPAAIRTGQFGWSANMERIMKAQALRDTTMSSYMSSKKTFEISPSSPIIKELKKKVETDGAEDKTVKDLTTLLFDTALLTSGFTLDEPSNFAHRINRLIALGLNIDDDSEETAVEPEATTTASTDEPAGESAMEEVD

Sequence of Dual specificity protein kinase CLK1 (P49759 whole entry): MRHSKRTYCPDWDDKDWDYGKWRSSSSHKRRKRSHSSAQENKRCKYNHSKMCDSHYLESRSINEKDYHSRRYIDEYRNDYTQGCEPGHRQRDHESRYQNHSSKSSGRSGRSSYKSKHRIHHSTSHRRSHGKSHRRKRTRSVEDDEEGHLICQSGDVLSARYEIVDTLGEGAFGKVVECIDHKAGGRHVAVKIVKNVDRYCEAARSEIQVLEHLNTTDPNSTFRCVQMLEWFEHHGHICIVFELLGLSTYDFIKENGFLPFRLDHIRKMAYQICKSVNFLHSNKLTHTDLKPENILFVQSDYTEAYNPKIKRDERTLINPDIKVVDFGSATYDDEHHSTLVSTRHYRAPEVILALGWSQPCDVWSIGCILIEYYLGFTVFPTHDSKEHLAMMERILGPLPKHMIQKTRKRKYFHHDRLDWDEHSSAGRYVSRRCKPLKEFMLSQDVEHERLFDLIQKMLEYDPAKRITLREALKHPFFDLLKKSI

Question: Which AC50 [1] does the source give for FC(F)(F)c1cccc(Nc2nccc(-c3ccc4c(c3)OCO4)n2)c1 here?
Answer: 15.7 µM (active)

Question: Which AC50 (Escherichia coli) does the source give for CCc1nc2nc(C)c(NS(=O)(=O)c3ccc(Cl)s3)c(O)n2n1 here?
Answer: 65.8 µM (active)

Question: For CCN(CC)c1ccc(/C=N/NC(=O)c2cccc(S(=O)(=O)N3CCOCC3)c2)c(O)c1, which EC50 [2] is on record?
Answer: 12.5 µM (inconclusive)

Question: What about the EC50 (cells [3]) of the same compound?
Answer: 2.85 µM (active)

Question: And the EC50 [4]?
Answer: 0.769 µM (active)

Question: And the EC50 (cells [5])?
Answer: 28.5 µM (active)

Question: What about the EC50 [6] of the same compound?
Answer: > 180 µM (inactive)

Question: And the AC50 [7]?
Answer: 1.52 µM (active)

Question: What about the AC50 (A-375) of the same compound?
Answer: 47.2 µM (active)

Question: What about the AC50 (INS1) of the same compound?
Answer: 0.358 µM (active)

Question: And the EC50 [8]?
Answer: > 160 µM (inactive)
